According to PMC6222544, “Fragment-Based Lead Generation of 5-Phenyl-1H-pyrazole-3-carboxamide Derivatives as Leads for Potent Factor Xia Inhibitors” (Molecules : A Journal of Synthetic Chemistry and Natural …, 2018):
Where two headings read alike, the source gives them in different places.

Key:
FXIa = settings: representative FXIa inhibitors, Figure 1; cited from earlier work
rabbit plasma = assay: aPTT in vitro coagulation assay; assay type: biochemical; settings: incubated 3 min at 37 °C
Experimental: A commercially available automatic Coagulation analyzer (Steellex Science Instrument Co., Ltd., Beijing, China) was employed to measure aPTT. The clotting times were also measured using the instrument itself, in accordance with the manufacturer’s instructions. Increasing concentrations of inhibitor or solvent were added to rabbit (Beijing Longan Experimental Animal Breeding Center, SCXK(Jing)2016-0006, Beijing, China) plasma and incubated for 3 min at 37 °C. APTT was determined by automatic Coagulation analyzer.

human FXIa = target: T1, human FXIa (Homo sapiens, UniProt P03951); assay: Inhibition of FXIa in vitro (chromogenic substrate assay); assay type: biochemical
T1 construct: purchased Haematologic Technologies, Essex Junction, VT, USA
T1 sequence (P03951 388-625 limits assumed): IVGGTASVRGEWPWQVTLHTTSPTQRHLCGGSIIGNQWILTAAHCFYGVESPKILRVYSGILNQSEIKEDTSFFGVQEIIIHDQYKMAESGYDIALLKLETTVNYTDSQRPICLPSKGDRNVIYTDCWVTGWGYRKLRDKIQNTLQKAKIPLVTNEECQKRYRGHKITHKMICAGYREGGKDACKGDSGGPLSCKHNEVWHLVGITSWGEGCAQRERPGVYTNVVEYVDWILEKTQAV
T1 sequence (P03951 19-387 partner limits assumed): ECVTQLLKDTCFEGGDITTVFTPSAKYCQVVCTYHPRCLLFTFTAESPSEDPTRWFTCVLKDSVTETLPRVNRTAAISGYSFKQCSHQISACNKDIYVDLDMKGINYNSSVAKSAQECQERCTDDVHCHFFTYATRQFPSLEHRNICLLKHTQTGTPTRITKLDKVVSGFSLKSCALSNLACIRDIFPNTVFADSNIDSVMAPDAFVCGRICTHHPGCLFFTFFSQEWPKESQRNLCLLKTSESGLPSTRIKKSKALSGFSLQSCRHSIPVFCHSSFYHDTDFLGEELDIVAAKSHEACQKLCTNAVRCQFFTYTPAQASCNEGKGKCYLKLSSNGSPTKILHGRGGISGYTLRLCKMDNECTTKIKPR
Experimental: The negative controlwas composed of the same mixed solutions except replacing test compound with DMSO. […] The IC50 was calculated by IBM SPSS Statistics 22.0 (IBM Inc., North Castle, NY, USA) and the Probit function in it. IC50 values were converted to Ki values by the followingrelationship:Ki = IC50/(1 + [S]/Km)

[1] = human FXIa, chromogenic substrate BIOPHEN CS-21(66), 37 °C, pH 7.4, Ki = IC50/(1 + [S]/Km), read-out: Ki

| SMILES | Ki (FXIa) | 1.5× aPTT (μM) (Rabbit) (rabbit plasma) | Ki (human FXIa; Table 1 values, read-out: FXIa inhibitory potency (Ki)) | Ki (human FXIa; [1]) | melting point |
| --- | --- | --- | --- | --- | --- |
| COC1CCN(c2cccc3c2CCN(C(=O)c2cc(-c4cccc(Cl)c4)[nH]n2)[C@@H]3C(=O)Nc2ccc(C(=O)O)cc2)CC1 [Compound 2] | 18.4 nM | – | – | – | – |
| CC1CC1C(=O)Nc1ccc(C[C@H](NC(=O)c2cc(-c3cccc(Cl)c3F)[nH]n2)C(=O)Nc2ccc3[nH]c(C(=O)O)cc3c2)cc1 (stereo partly drawn) [Compound 7za, 5-((2S)-2-(5-(3-Chloro-2-fluorophenyl)-1H-pyrazole-3-carboxamido)-3-(4-(2-methylcyclopropane-carboxamido)phenyl)propanamido)-1H-indole-2-carboxylic acid] | – | 43.33 µM | – | – | – |
| NC[C@H]1CC[C@H](C(=O)NC(Cc2ccccc2)c2ncc(-c3ccc4c(N)n[nH]c4c3)[nH]2)CC1 (stereo partly shown) [Compound 4, reference compound] | – | 3.79 µM | 23.5 nM | 23.5 nM | – |
| O=C(O)c1ccc(NC(=O)[C@H](Cc2ccccc2)NC(=O)c2cc(-c3c(F)ccc(Cl)c3F)[nH]n2)cc1 [Compound 7k, (S)-4-(2-(5-(3-Chloro-2,6-difluorophenyl)-1H-pyrazole-3-carboxamido)-3-phenylpropanamido)benzoicacid] | – | – | – | 28900 nM | 129 to 131 °C (dec.) |
